What was measured:
ob/ob mice = experiment: Effect of compounds on food intake in ob/ob mice (15 h food consumption during subcutaneous minipump infusion); assay type: in vivo, mouse; details: subcutaneous continuous infusion
Protocol: Obese (ob/ob) mouse is selected as the primary animal model for screening as this mutant mouse consumes high amounts of food resulting in a high signal to noise ratio. To further substantiate and compare efficacy data, the effect of the compounds on food consumption is also studied in wild type (C57BL/6J) mice. The amount of food consumed during 15 hours of infusion of compounds is recorded.
Male mice (obese C57BL/6JBom-Lep^ob and lean wild-type C57B1/6JBom; Bomholtsgaard, Denmark) 8-9 weeks with an average body weight of 50 g (obese) and 25 g (lean) are used in all the studies. The animals are housed singly in cages at 23±1° C., 40-60% humidity and have free access to water and standard laboratory chow. The 12/12-h light/dark cycle is set to lights off at 5 p.m. The animals are conditioned for at least one week before start of study.
The test compounds are dissolved in solvents suitable for each specific compound such as cyclodextrin, cyclodextrin/methane sulfonic acid, polyethylene glycol/methane sulfonic acid, or saline. Fresh solutions are made for each study. […] The purity of the test compounds is of analytical grade.
The animals are weighed at the start of the study and randomized based on body weight. Alzet osmotic minipumps (Model 2001D; infusion rate 8 μl/h) are used and loaded essentially as recommended by the Alzet technical information manual (Alza Scientific Products, 1997; Teeuwes and Yam, 1976). Continuous subcutaneous infusion with 24 hours duration is used. The minipumps are either filled with different concentrations of test compounds dissolved in vehicle or with only vehicle solution and maintained in vehicle pre-warmed to 37° C. […]
The weights of the food pellets are measured at 5 p.m. and at 8 p.m. for two days before (baseline) and one day after the implantation of the osmotic minipumps. […]
Food consumption for 15 hours is measured for the three consecutive days and the percentage of basal level values is derived for each animal from the day before and after treatment. The values are expressed as mean±SD and mean±SEM from eight animals per dose group. […]

[1] = Determination of plasma concentration (free plasma concentration at steady state); assay type: in vivo, mouse; details: ob/ob mice, subcutaneous continuous infusion
Protocol: The weights of the food pellets are measured at 5 p.m. and at […]. for two days before (baseline) and one day after the implantation of the osmotic minipumps. The weighing is performed with a computer assisted Mettler Toledo PR 5002 balance. Occasional spillage is corrected for. At the end of the study the animals are killed by neck dislocation and trunk blood sampled for later analysis of plasma drug concentrations.
The plasma sample proteins are precipitated with methanol, centrifuged and the supernatant is transferred to HPLC vials and injected into the liquid chromatography/mass spectrometric system. The mass spectrometer is set for electrospray positive ion mode and Multiple Reaction Monitoring (MRM with the transition m/z 316⇄221).
A linear regression analysis of the standards forced through the origin is used to calculate the concentrations of the unknown samples.

COc1ccc(NS(=O)(=O)c2sc3ccc(Cl)cc3c2C)cc1N1CCNCC1.Cl [SB-271046, 5-Chloro-3-methyl-benzo-[b]thiophene-2-sulphonic acid (4-methoxy-3-piperazin-yl-phenyl)-amide monohydrochloride]
reduction of food intake compared to the basal level of food intake (ob/ob mice; 10 mg/kg/day): 45% | reduction of food intake compared to the basal level of food intake (ob/ob mice; 30 mg/kg/day): 60% | reduction of food intake compared to the basal level of food intake (ob/ob mice; 50 mg/kg/day): 77% | Free plasma concentration at the steady state giving the effect ([1]; 10 mg/kg/day): 0.006 | Free plasma concentration at the steady state giving the effect ([1]; 30 mg/kg/day): 0.019 | Free plasma concentration at the steady state giving the effect ([1]; 50 mg/kg/day): 0.034
